Data: patent US20240116985A1, “STAPLED PEPTIDES AND METHODS THEREOF” (priority 2020, published 2024)
Values after ≈ are worked out from the molar mass of the structure shown. Read-outs that look alike come from different tables or passages of the source.

Key:
[1] = target: T1, full-length beta-Catenin (Uniprot ID P35222) (Homo sapiens, UniProt P35222); experiment: Fluorescence polarization IC50 (beta-catenin / 5FAM-TCF4 10-53 competition); format: binding; settings: read-out: beta-Catenin FP IC50
T1 construct: 10 nM full-length beta-Catenin (Uniprot ID P35222)
T1 sequence (P35222 1-781): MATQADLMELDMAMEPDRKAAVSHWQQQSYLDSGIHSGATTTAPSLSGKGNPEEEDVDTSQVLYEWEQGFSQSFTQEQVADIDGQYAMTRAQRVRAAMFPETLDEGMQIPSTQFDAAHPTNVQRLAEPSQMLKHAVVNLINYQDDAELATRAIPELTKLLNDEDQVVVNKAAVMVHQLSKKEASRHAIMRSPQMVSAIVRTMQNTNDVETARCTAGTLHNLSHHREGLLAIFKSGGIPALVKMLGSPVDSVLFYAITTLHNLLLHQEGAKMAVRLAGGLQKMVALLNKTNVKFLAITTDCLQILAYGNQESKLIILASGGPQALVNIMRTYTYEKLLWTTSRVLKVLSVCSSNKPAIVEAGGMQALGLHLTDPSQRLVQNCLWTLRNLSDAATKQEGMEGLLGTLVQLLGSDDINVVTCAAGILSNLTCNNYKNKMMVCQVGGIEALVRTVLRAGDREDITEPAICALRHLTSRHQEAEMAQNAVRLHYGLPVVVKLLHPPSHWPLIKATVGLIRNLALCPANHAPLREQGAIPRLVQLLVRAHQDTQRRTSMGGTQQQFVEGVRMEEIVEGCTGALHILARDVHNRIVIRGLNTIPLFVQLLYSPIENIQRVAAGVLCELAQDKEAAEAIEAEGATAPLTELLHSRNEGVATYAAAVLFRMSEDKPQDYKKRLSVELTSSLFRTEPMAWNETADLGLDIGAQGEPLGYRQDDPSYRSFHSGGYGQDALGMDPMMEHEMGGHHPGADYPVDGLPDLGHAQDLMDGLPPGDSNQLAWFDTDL

CHI Log D procedure = format: physicochemical; settings: pH 7.4, CHI Log D
Solubility in PBS = format: physicochemical
Method in brief: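 Solubility is derived from HPLC peak areas: the ratio of the PBS supernatant peak to a 50 μM DMSO peptide peak, times 50 uM.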

[2] = target: T2, beta-catenin/TCF4 engagement (Homo sapiens, UniProt P35222); experiment: Nano-BRET target engagement assay (B-cat-Halo & TCF4-Luc in HEK293 cells); format: cell-based
T2 construct: expressed in transfected cells; host or cells: HEK293
T2 sequence (P35222 1-781): T1 sequence (P35222 1-781)

| IC50 [1] | logD (CHI Log D procedure) | Solubility (Solubility in PBS) | IC50 ([2]; read-out: NanoBRET Abs IC50) | chromatographic logD (CHI Log D procedure) | IC50 ([2]; read-out: NanoBRET IC50) | Solubility (Solubility in PBS; Solubility (uM)) | solubility at 15 min (Solubility in PBS; Solubility (uM)) | Structure (SMILES) |
| --- | --- | --- | --- | --- | --- | --- | --- | --- |
| 22 nM | 2.28 | 10 µM (≈ 18.1 µg/mL) | > 20000 nM | – | – | – | – | CC(=O)N1CCC[C@]12CC=CCCCC1(CCCC=CCCCOC(=O)N3CC[C@@](C(=O)N[C@@H](Cc4ccsc4)C(=O)N[C@@H](Cc4csc5ccccc45)C(N)=O)(C3)NC(=O)[C@H](CC(N)=O)NC(=O)[C@H](Cc3ccccc3)NC(=O)[C@H](C)NC(=O)[C@H](C)NC(=O)[C@H](Cc3c[nH]cn3)NC(=O)[C@H](CC(=O)O)NC1=O)NC(=O)[C@H](CC(C)(C)C)NC(=O)[C@H](CC(=O)O)NC2=O (stereo partly drawn) [I-863, Ac-PL3-Asp-Npg-B5-Asp-His-Ala-Ala-Phe-Asn-PyrS2-3Thi-BztA-NH2] |
| 12 nM | – | 10 µM (≈ 19.4 µg/mL) | 40000 nM | 2.62 | 29100 nM | – | – | CC(=O)N1CCC[C@]12CC=CCCCC1(CCCC=CCCCOC(=O)N3CC[C@@](C(=O)N[C@@H](Cc4ccsc4)C(=O)N[C@@H](Cc4csc5ccccc45)C(=O)N[C@@H](CCC(N)=O)C(N)=O)(C3)NC(=O)[C@H](CC(N)=O)NC(=O)[C@H](Cc3ccccc3)NC(=O)[C@H](C)NC(=O)[C@H](C)NC(=O)[C@H](Cc3c[nH]cn3)NC(=O)[C@H](CC(=O)O)NC1=O)NC(=O)[C@H](CC(C)(C)C)NC(=O)[C@H](CC(=O)O)NC2=O (stereo partly drawn) [I-864, Ac-PL3-Asp-Npg-B5-Asp-His-Ala-Ala-Phe-Asn-PyrS2-3Thi-BztA-Gln-NH2] |
| 14 nM | – | – | > 20000 nM | 2.11 | – | 34 µM (≈ 73.4 µg/mL) | – | CC(=O)N1CCC[C@]12CC=CCCCC1(CCCC=CCCCOC(=O)N3CC[C@@](C(=O)N[C@@H](Cc4ccsc4)C(=O)N[C@@H](Cc4csc5ccccc45)C(=O)N[C@@H](CCC(N)=O)C(N)=O)(C3)NC(=O)[C@H](CC(N)=O)NC(=O)[C@H](Cc3ccccc3)NC(=O)[C@H](CCCCNC(=O)CCc3cccc4ccccc34)NC(=O)[C@H](C)NC(=O)[C@H](CC(=O)O)NC(=O)[C@H](CC(=O)O)NC1=O)NC(=O)[C@H](CC(C)(C)C)NC(=O)[C@H](CC(=O)O)NC2=O (stereo partly drawn) [I-884, Ac-PL3-Asp-Npg-B5-Asp-Asp-Ala-[1NapPr]Lys-Phe-Asn-PyrS2-3Thi-BztA-Gln-NH2] |
| 32 nM | – | – | > 20000 nM | 2.39 | – | 43 µM (≈ 93.9 µg/mL) | – | CC(=O)N1CCC[C@]12CC=CCCCC1(CCCC=CCCCOC(=O)N3CC[C@@](C(=O)N[C@@H](Cc4ccsc4)C(=O)N[C@@H](Cc4csc5ccccc45)C(=O)N[C@@H](CCC(N)=O)C(N)=O)(C3)NC(=O)[C@H](CC(N)=O)NC(=O)[C@H](Cc3ccccc3)NC(=O)[C@H](CCCCNC(=O)C(C)(c3ccccc3)c3ccccc3)NC(=O)[C@H](C)NC(=O)[C@H](CC(=O)O)NC(=O)[C@H](CC(=O)O)NC1=O)NC(=O)[C@H](CC(C)(C)C)NC(=O)[C@H](CC(=O)O)NC2=O (stereo partly drawn) [I-885, Ac-PL3-Asp-Npg-B5-Asp-Asp-Ala-[22PhPr]Lys-Phe-Asn-PyrS2-3Thi-BztA-Gln-NH2] |
| 22 nM | – | – | > 20000 nM | 1.51 | – | 43 µM (≈ 90.4 µg/mL) | – | CC(=O)N1CCC[C@]12CC=CCCCC1(CCCC=CCCCOC(=O)N3CC[C@@](C(=O)N[C@@H](Cc4ccsc4)C(=O)N[C@@H](Cc4csc5ccccc45)C(=O)N[C@@H](CCC(N)=O)C(N)=O)(C3)NC(=O)[C@H](CC(N)=O)NC(=O)[C@H](Cc3ccccc3)NC(=O)[C@H](CCCCNC(=O)CN3CCOCC3)NC(=O)[C@H](C)NC(=O)[C@H](CC(=O)O)NC(=O)[C@H](CC(=O)O)NC1=O)NC(=O)[C@H](CC(C)(C)C)NC(=O)[C@H](CC(=O)O)NC2=O (stereo partly drawn) [I-886, Ac-PL3-Asp-Npg-B5-Asp-Asp-Ala-[MorphAc]Lys-Phe-Asn-PyrS2-3Thi-BztA-Gln-NH2] |
| 14 nM | – | – | > 20000 nM | 1.37 | – | 46 µM (≈ 97.3 µg/mL) | – | CC(=O)N1CCC[C@]12CC=CCCCC1(CCCC=CCCCOC(=O)N3CC[C@@](C(=O)N[C@@H](Cc4ccsc4)C(=O)N[C@@H](Cc4csc5ccccc45)C(=O)N[C@@H](CCC(N)=O)C(N)=O)(C3)NC(=O)[C@H](CC(N)=O)NC(=O)[C@H](Cc3ccccc3)NC(=O)[C@H](CCCCNC(=O)CN3CCN(C)CC3)NC(=O)[C@H](C)NC(=O)[C@H](CC(=O)O)NC(=O)[C@H](CC(=O)O)NC1=O)NC(=O)[C@H](CC(C)(C)C)NC(=O)[C@H](CC(=O)O)NC2=O (stereo partly drawn) [I-887, Ac-PL3-Asp-Npg-B5-Asp-Asp-Ala-[MePipAc]Lys-Phe-Asn-PyrS2-3Thi-BztA-Gln-NH2] |
| 16 nM | – | – | > 20000 nM | 1.49 | – | – | 41 µM (≈ 89.9 µg/mL) | CC(=O)N1CCC[C@]12CC=CCCCC1(CCCC=CCCCOC(=O)N3CC[C@@](C(=O)N[C@@H](Cc4ccsc4)C(=O)N[C@@H](Cc4csc5ccccc45)C(=O)N[C@@H](CCC(N)=O)C(N)=O)(C3)NC(=O)[C@H](CC(N)=O)NC(=O)[C@H](Cc3ccccc3)NC(=O)[C@H](CCCCNC(=O)c3ccc(CN4CCN(C)CC4)cc3)NC(=O)[C@H](C)NC(=O)[C@H](CC(=O)O)NC(=O)[C@H](CC(=O)O)NC1=O)NC(=O)[C@H](CC(C)(C)C)NC(=O)[C@H](CC(=O)O)NC2=O (stereo partly drawn) [I-889, Ac-PL3-Asp-Npg-B5-Asp-Asp-Ala-[4MePipBz]Lys-Phe-Asn-PyrS2-3Thi-BztA-Gln-NH2] |
| 16 nM | – | – | > 20000 nM | 1.67 | – | 40 µM (≈ 87.1 µg/mL) | – | CC(=O)N1CCC[C@]12CC=CCCCC1(CCCC=CCCCOC(=O)N3CC[C@@](C(=O)N[C@@H](Cc4ccsc4)C(=O)N[C@@H](Cc4csc5ccccc45)C(=O)N[C@@H](CCC(N)=O)C(N)=O)(C3)NC(=O)[C@H](CC(N)=O)NC(=O)[C@H](Cc3ccccc3)NC(=O)[C@H](CCCCNC(=O)c3ccc(CN4CCOCC4)cc3)NC(=O)[C@H](C)NC(=O)[C@H](CC(=O)O)NC(=O)[C@H](CC(=O)O)NC1=O)NC(=O)[C@H](CC(C)(C)C)NC(=O)[C@H](CC(=O)O)NC2=O (stereo partly drawn) [I-890, Ac-PL3-Asp-Npg-B5-Asp-Asp-Ala-[MeMorphBz]Lys-Phe-Asn-PyrS2-3Thi-BztA-Gln-NH2] |
| 14 nM | – | – | > 20000 nM | 1.45 | – | 31 µM (≈ 70.7 µg/mL) | – | COCCOCCOCCOCCOCCOCCC(=O)NCCCC[C@@H]1NC(=O)[C@H](C)NC(=O)[C@H](CC(=O)O)NC(=O)[C@H](CC(=O)O)NC(=O)C2(CCCC=CCCCOC(=O)N3CC[C@@](C(=O)N[C@@H](Cc4ccsc4)C(=O)N[C@@H](Cc4csc5ccccc45)C(=O)N[C@@H](CCC(N)=O)C(N)=O)(C3)NC(=O)[C@H](CC(N)=O)NC(=O)[C@H](Cc3ccccc3)NC1=O)CCCC=CC[C@]1(CCCN1C(C)=O)C(=O)N[C@@H](CC(=O)O)C(=O)N[C@@H](CC(C)(C)C)C(=O)N2 (stereo partly drawn) [I-895, Ac-PL3-Asp-Npg-B5-Asp-Asp-Ala-[mPEG6]Lys-Phe-Asn-PyrS2-3Thi-BztA-Gln-NH2] |
| 22 nM | – | – | > 20000 nM | 1.45 | – | – | 30 µM (≈ 71.1 µg/mL) | COCCOCCOCCOCCOCCOCCOCCOCCC(=O)NCCCC[C@@H]1NC(=O)[C@H](C)NC(=O)[C@H](CC(=O)O)NC(=O)[C@H](CC(=O)O)NC(=O)C2(CCCC=CCCCOC(=O)N3CC[C@@](C(=O)N[C@@H](Cc4ccsc4)C(=O)N[C@@H](Cc4csc5ccccc45)C(=O)N[C@@H](CCC(N)=O)C(N)=O)(C3)NC(=O)[C@H](CC(N)=O)NC(=O)[C@H](Cc3ccccc3)NC1=O)CCCC=CC[C@]1(CCCN1C(C)=O)C(=O)N[C@@H](CC(=O)O)C(=O)N[C@@H](CC(C)(C)C)C(=O)N2 (stereo partly drawn) [I-896, Ac-PL3-Asp-Npg-B5-Asp-Asp-Ala-[mPEG8]Lys-Phe-Asn-PyrS2-3Thi-BztA-Gln-NH2] |
| 16 nM | – | – | > 20000 nM | 1.65 | – | 43 µM (≈ 88 µg/mL) | – | CCCC(=O)NCCCC[C@@H]1NC(=O)[C@H](C)NC(=O)[C@H](CC(=O)O)NC(=O)[C@H](CC(=O)O)NC(=O)C2(CCCC=CCCCOC(=O)N3CC[C@@](C(=O)N[C@@H](Cc4ccsc4)C(=O)N[C@@H](Cc4csc5ccccc45)C(=O)N[C@@H](CCC(N)=O)C(N)=O)(C3)NC(=O)[C@H](CC(N)=O)NC(=O)[C@H](Cc3ccccc3)NC1=O)CCCC=CC[C@]1(CCCN1C(C)=O)C(=O)N[C@@H](CC(=O)O)C(=O)N[C@@H](CC(C)(C)C)C(=O)N2 (stereo partly drawn) [I-897, Ac-PL3-Asp-Npg-B5-Asp-Asp-Ala-[Bua]Lys-Phe-Asn-PyrS2-3Thi-BztA-Gln-NH2] |
